From patent US20230265151A1, “GIP/GLP1 CO-AGONIST COMPOUNDS” (priority 2020, published 2023)
Where two headings read alike, the source gives them in different places.

Assays:
Type in all cases: cell-based
[1] = molecular target: T1, hGIPR (Homo sapiens, UniProt P48546); assay: Functional cAMP formation (HTRF) in HEK-293 clonal cells expressing hGIPR, 0.1% bovine casein, without or with 1.0% human serum albumin; conditions: for EC50: geometric mean
T1 construct: expressed in transfected cells
T1 sequence (P48546 22-466): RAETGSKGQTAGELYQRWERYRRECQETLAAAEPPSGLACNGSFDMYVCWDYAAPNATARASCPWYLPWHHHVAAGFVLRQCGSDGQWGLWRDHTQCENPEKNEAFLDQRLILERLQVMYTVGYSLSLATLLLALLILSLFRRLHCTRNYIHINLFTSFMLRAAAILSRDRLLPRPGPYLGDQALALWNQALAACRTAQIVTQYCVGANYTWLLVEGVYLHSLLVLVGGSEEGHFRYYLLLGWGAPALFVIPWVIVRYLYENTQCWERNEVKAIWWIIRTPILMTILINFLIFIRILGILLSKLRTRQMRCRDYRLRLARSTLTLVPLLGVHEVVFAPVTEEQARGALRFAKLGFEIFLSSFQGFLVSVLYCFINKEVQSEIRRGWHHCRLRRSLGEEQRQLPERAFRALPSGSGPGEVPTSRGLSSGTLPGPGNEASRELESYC
Method in brief: (§1)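 Cells were stimulated with peptide for 30 min at 37° C, then intracellular cAMP was measured by competitive HTRF (665/620 nm ratio) and converted to nM using a cAMP standard curve. Relative EC50 and Emax came from four-parameter logistic fits of percent maximal response against peptide concentration.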

[2] = molecular target: T2, hGCGR (Homo sapiens, UniProt P47871); assay: Functional cAMP formation (HTRF) in HEK-293 clonal cells expressing hGCGR, 0.1% bovine casein, without or with 1.0% human serum albumin
T2 construct: expressed in transfected cells
T2 sequence (P47871 26-477): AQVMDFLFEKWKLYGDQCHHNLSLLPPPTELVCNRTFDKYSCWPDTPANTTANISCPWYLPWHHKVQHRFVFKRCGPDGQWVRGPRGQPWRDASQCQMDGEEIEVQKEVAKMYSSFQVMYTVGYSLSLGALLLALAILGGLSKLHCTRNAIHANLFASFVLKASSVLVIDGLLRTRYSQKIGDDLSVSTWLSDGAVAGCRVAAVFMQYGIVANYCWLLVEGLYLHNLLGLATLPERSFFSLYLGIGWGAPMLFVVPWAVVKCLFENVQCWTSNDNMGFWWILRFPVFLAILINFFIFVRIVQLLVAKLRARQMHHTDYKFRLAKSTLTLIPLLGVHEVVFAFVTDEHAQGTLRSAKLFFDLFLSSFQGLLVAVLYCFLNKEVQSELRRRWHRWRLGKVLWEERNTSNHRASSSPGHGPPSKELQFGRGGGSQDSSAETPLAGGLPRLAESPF
Method in brief: as §1

[3] = molecular target: hGLP-1R (Homo sapiens, UniProt P43220); assay: Functional cAMP formation (HTRF) in HEK-293 clonal cells expressing hGLP-1R, 0.1% bovine casein, without or with 1.0% human serum albumin; set-up: expressed in transfected cells
Sequence of hGLP-1R (P43220 24-463): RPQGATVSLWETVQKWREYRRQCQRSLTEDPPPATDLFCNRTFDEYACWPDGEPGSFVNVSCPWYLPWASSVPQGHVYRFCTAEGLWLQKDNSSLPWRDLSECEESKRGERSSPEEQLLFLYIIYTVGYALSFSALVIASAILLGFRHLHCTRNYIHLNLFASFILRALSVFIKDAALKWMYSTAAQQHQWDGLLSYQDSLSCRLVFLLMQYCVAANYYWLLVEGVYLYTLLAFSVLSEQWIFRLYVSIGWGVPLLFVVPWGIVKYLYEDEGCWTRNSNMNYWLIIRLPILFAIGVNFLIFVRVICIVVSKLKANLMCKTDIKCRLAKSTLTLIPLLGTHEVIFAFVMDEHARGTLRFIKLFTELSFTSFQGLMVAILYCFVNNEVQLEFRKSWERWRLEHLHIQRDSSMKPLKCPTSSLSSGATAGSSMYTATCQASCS
Method in brief: as §1

[4] = hGCGR EC50, nM (SEM, n), cAMP, incubated at 37° C., 0.1% bovine casein (no human serum albumin), geometric mean

Compound CC[C@H](C)[C@H](NC(=O)[C@H](CCCN)NC(=O)[C@H](CC(=O)O)NC(=O)[C@H](CC(C)C)NC(=O)[C@](C)(CC(C)C)NC(=O)[C@@H](NC(=O)[C@H](CO)NC(=O)[C@H](Cc1ccncc1)NC(=O)[C@H](CC(=O)O)NC(=O)[C@H](CO)NC(=O)[C@@H](NC(=O)[C@](C)(Cc1ccccc1F)NC(=O)[C@@H](NC(=O)CNC(=O)[C@H](CCC(=O)O)NC(=O)C(C)(C)NC(=O)[C@@H](N)Cc1ccc(O)cc1)[C@@H](C)O)[C@@H](C)O)[C@@H](C)CC)C(=O)N[C@@H](C)C(=O)N[C@@H](CCC(N)=O)C(=O)NC(C)(C)C(=O)N[C@@H](CCC(=O)O)C(=O)N[C@@H](Cc1ccccc1)C(=O)N[C@H](C(=O)N[C@@H](CCCCNC(=O)COCCOCCNC(=O)COCCOCCNC(=O)CC[C@H](NC(=O)CCCCCCCCCCCCC(=O)O)C(=O)O)C(=O)N[C@@](C)(Cc1ccc(O)cc1)C(=O)N[C@@H](CC(C)C)C(=O)N[C@H](C(=O)N[C@@H](CCC(=O)O)C(=O)NCC(=O)NCC(=O)N1CCC[C@H]1C(=O)N[C@@H](CO)C(=O)N[C@@H](CO)C(=O)NCC(=O)N[C@@H](C)C(=O)N1CCC[C@H]1C(=O)N1CCC[C@H]1C(=O)N1CCC[C@H]1C(=O)N[C@@H](CO)C(=O)N[C@@H](CCCCNC(=O)COCCOCCNC(=O)COCCOCCNC(=O)CC[C@H](NC(=O)CCCCCCCCCCCCC(=O)O)C(=O)O)C(N)=O)[C@@H](C)CC)[C@@H](C)CC [Example 72] has an Emax ([1]; HEK293, read-out: hGIPR Emax, % ± SEM, 0.1% bovine casein and 1.0% human serum albumin, 37° C., percent of maximal response to GIP(1-42)NH2) of 95.9%, an Emax ([1]; HEK293, read-out: hGIPR Emax, % ± SEM, percent of maximal response to GIP(1-42)NH2, 37° C., 0.1% bovine casein, arithmetic mean) of 96.5 ± 3.71% and an EC50 ([1]; hGIPR EC50, nM (SEM, n), 0.1% bovine casein and 1.0% human serum albumin, 37° C.) of 3.55 nM. The EC50 ([2]; hGCGR EC50, nM (SEM, n), 0.1% bovine casein and 1.0% human serum albumin, 37° C., geometric mean) was over 9950 nM, the EC50 [2, 4] was over 9950 nM and the Emax ([3]; HEK293, read-out: hGLP-1R Emax, % ± SEM, 0.1% bovine casein and 1.0% human serum albumin, 37° C., percent of maximal response to GLP-1(7-36)NH2) was 98.8%. The EC50 ([3]; hGLP-1R EC50, nM (SEM, n), 0.1% bovine casein and 1.0% human serum albumin, 37° C., geometric mean) was 40.1 nM and the EC50 ([3]; hGLP-1R EC50, nM (SEM, n), cAMP, incubated at 37° C., 0.1% bovine casein (no human serum albumin), geometric mean) was 0.245 nM.
CC[C@H](C)[C@H](NC(=O)[C@H](CC(C)C)NC(=O)[C@](C)(Cc1ccc(O)cc1)NC(=O)[C@H](CCCCNC(=O)COCCOCCNC(=O)COCCOCCNC(=O)[C@@H](N)CCCCNC(=O)CCCCCCCCCCCCC(=O)O)NC(=O)[C@@H](NC(=O)[C@H](Cc1ccccc1)NC(=O)[C@H](CCC(=O)O)NC(=O)C(C)(C)NC(=O)[C@H](CCC(N)=O)NC(=O)[C@H](C)NC(=O)[C@H](CCCCNC(=O)COCCOCCNC(=O)COCCOCCNC(=O)[C@@H](N)CCCCNC(=O)CCCCCCCCCCCCC(=O)O)NC(=O)[C@H](CCCN)NC(=O)[C@H](CC(=O)O)NC(=O)[C@H](CC(C)C)NC(=O)[C@](C)(CC(C)C)NC(=O)[C@@H](NC(=O)[C@H](CO)NC(=O)[C@H](Cc1ccncc1)NC(=O)[C@H](CC(=O)O)NC(=O)[C@H](CO)NC(=O)[C@@H](NC(=O)[C@](C)(Cc1ccccc1F)NC(=O)[C@@H](NC(=O)CNC(=O)[C@H](CCC(=O)O)NC(=O)C(C)(C)NC(=O)[C@@H](N)Cc1ccc(O)cc1)[C@@H](C)O)[C@@H](C)O)[C@@H](C)CC)[C@@H](C)CC)C(=O)N[C@@H](CCC(=O)O)C(=O)NCC(=O)NCC(=O)N1CCC[C@H]1C(=O)N[C@@H](CO)C(=O)N[C@@H](CO)C(=O)NCC(=O)N[C@@H](C)C(=O)N1CCC[C@H]1C(=O)N1CCC[C@H]1C(=O)N1CCC[C@H]1C(=O)N[C@@H](CO)C(N)=O [Example 160] gave an EC50 ([1]; hGIPR EC50, nM (SEM, n), cAMP, incubated at 37° C., 0.1% bovine casein (no human serum albumin)) of 0.0197 nM, an EC50 [2, 4] of over 9950 nM and an Emax ([3]; HEK293, read-out: hGLP-1R Emax, % ± SEM, percent of maximal response to GLP-1(7-36)NH2, 37° C., 0.1% bovine casein, arithmetic mean) of 93.6%.
With CC[C@H](C)[C@H](NC(=O)[C@H](CC(C)C)NC(=O)[C@](C)(Cc1ccc(O)cc1)NC(=O)[C@@H](CCC(=O)O)NC(=O)[C@@H](NC(=O)[C@H](Cc1ccccc1)NC(=O)[C@H](CCC(=O)O)NC(=O)C(C)(C)NC(=O)[C@H](CCC(N)=O)NC(=O)[C@H](C)NC(=O)[C@H](CCCCNC(=O)COCCOCCNC(=O)COCCOCCNC(=O)CCCCCCCCCOc1ccc(C(=O)O)cc1)NC(=O)[C@H](CCCN)NC(=O)[C@H](CC(=O)O)NC(=O)[C@H](CC(C)C)NC(=O)[C@](C)(CC(C)C)NC(=O)[C@@H](NC(=O)C(C)(C)NC(=O)[C@H](Cc1ccncc1)NC(=O)[C@H](CC(=O)O)NC(=O)[C@H](CO)NC(=O)[C@@H](NC(=O)[C@](C)(Cc1ccccc1F)NC(=O)[C@@H](NC(=O)CNC(=O)[C@H](CCC(=O)O)NC(=O)C(C)(C)NC(=O)[C@@H](N)Cc1ccc(O)cc1)[C@@H](C)O)[C@@H](C)O)[C@@H](C)CC)[C@@H](C)CC)C(=O)N[C@@H](CCCCNC(=O)COCCOCCNC(=O)COCCOCCNC(=O)CCCCCCCCCOc1ccc(C(=O)O)cc1)C(=O)NCC(=O)NCC(=O)N1CCC[C@H]1C(=O)N[C@@H](CO)C(=O)N[C@@H](CO)C(=O)NCC(=O)N[C@@H](C)C(=O)N1CCC[C@H]1C(=O)N1CCC[C@H]1C(=O)N1CCC[C@H]1C(=O)N[C@@H](CO)C(N)=O [Example 395] the Emax ([1]; HEK293, read-out: hGIPR Emax, % ± SEM, cAMP, 37° C., 0.1% bovine casein and 1.0% human serum albumin, percent of maximal response to GIP(1-42)NH2) was 57.8%, the Emax ([1]; HEK293, read-out: hGIPR Emax, % ± SEM, cAMP, 37° C., 0.1% bovine casein, percent of maximal response to GIP(1-42)NH2, arithmetic mean) was 93.1% and the EC50 ([1]; hGIPR EC50, nM (SEM, n), cAMP, 37° C., 0.1% bovine casein (no human serum albumin)) was 0.0127 nM. For the same compound, the EC50 ([2]; hGCGR EC50, nM (SEM, n), cAMP, 37° C., 0.1% bovine casein (no human serum albumin), geometric mean) was over 9950 nM, the EC50 ([2]; hGCGR EC50, nM (SEM, n), cAMP, 37° C., 0.1% bovine casein and 1.0% human serum albumin, geometric mean (SEM, n)) was over 9950 nM and the Emax ([3]; HEK293, read-out: hGLP-1R Emax, % ± SEM, cAMP, 37° C., 0.1% bovine casein and 1.0% human serum albumin, percent of maximal response to GLP-1(7-36)NH2) was 96.1%. It also gave an Emax ([3]; HEK293, read-out: hGLP-1R Emax, % ± SEM, cAMP, 37° C., 0.1% bovine casein, percent of maximal response to GLP-1(7-36)NH2, arithmetic mean) of 90.8%, an EC50 ([3]; hGLP-1R EC50, nM (SEM, n), cAMP, 37° C., 0.1% bovine casein (no human serum albumin), geometric mean) of 0.377 nM and an EC50 ([3]; hGLP-1R EC50, nM (SEM, n), cAMP, 37° C., 0.1% bovine casein and 1.0% human serum albumin, geometric mean (SEM, n)) of 6.26 nM.
Work on CC[C@H](C)[C@H](NC(=O)[C@H](CCCN)NC(=O)[C@H](CC(=O)O)NC(=O)[C@H](CC(C)C)NC(=O)[C@](C)(CC(C)C)NC(=O)[C@@H](NC(=O)C(C)(C)NC(=O)[C@H](Cc1ccc(O)cc1)NC(=O)[C@H](CC(=O)O)NC(=O)[C@H](CO)NC(=O)[C@@H](NC(=O)[C@](C)(Cc1ccccc1F)NC(=O)[C@@H](NC(=O)CNC(=O)[C@H](CCC(=O)O)NC(=O)C(C)(C)NC(=O)[C@@H](N)Cc1ccc(O)cc1)[C@@H](C)O)[C@@H](C)O)[C@@H](C)CC)C(=O)N[C@@H](C)C(=O)N[C@@H](CCC(N)=O)C(=O)NC(C)(C)C(=O)N[C@@H](CCC(=O)O)C(=O)N[C@@H](Cc1ccccc1)C(=O)N[C@H](C(=O)N[C@@H](CCCCNC(=O)COCCOCCNC(=O)CC[C@H](NC(=O)COCCOCCNC(=O)COCCOCCNC(=O)CCCCCCCCCCCCC(=O)O)C(=O)O)C(=O)N[C@@](C)(Cc1ccc(O)cc1)C(=O)N[C@@H](CC(C)C)C(=O)N[C@H](C(=O)N[C@@H](CCCCNC(=O)COCCOCCNC(=O)CC[C@H](NC(=O)COCCOCCNC(=O)COCCOCCNC(=O)CCCCCCCCCCCCC(=O)O)C(=O)O)C(=O)NCC(=O)NCC(=O)N1CCC[C@H]1C(=O)N[C@@H](CO)C(=O)N[C@@H](CO)C(=O)NCC(=O)N[C@@H](C)C(=O)N1CCC[C@H]1C(=O)N1CCC[C@H]1C(=O)N1CCC[C@H]1C(=O)N[C@@H](CO)C(N)=O)[C@@H](C)CC)[C@@H](C)CC [Example 364] yielded an Emax ([1]; HEK293, cAMP, 37° C., 0.1% bovine casein and 1.0% human serum albumin, percent of maximal response to GIP(1-42)NH2, read-out: hGIPR Emax, % ± SEM) of 89.1%, an EC50 ([1]; cAMP, 37° C., 0.1% bovine casein (no human serum albumin), read-out: hGIPR EC50, nM (SEM, n)) of 0.0111 nM and an EC50 ([2]; cAMP, 37° C., 0.1% bovine casein (no human serum albumin), geometric mean, read-out: hGCGR EC50, nM (SEM, n)) of over 9950 nM. The EC50 ([2]; cAMP, 37° C., 0.1% bovine casein and 1.0% human serum albumin, geometric mean (SEM, n), read-out: hGCGR EC50, nM (SEM, n)) was over 9950 nM, the EC50 ([3]; cAMP, 37° C., 0.1% bovine casein (no human serum albumin), geometric mean, read-out: hGLP-1R EC50, nM (SEM, n)) was 0.347 nM and the EC50 ([3]; cAMP, 37° C., 0.1% bovine casein and 1.0% human serum albumin, geometric mean (SEM, n), read-out: hGLP-1R EC50, nM (SEM, n)) was 13 nM.
